From paper PMC6761391, “Blockade of Mas Receptor or Mas-Related G-Protein Coupled Receptor Type D Reduces Portal Pressure in Cirrhotic but Not in Non-cirrhotic Portal Hypertensive Rats” (Frontiers in Physiology, 2019)
Structures can show the parent of a compound that is named as a salt. Each block holds one molecule with its values, some of them ahead of it. Non-standard residues stand in square brackets, D forms with d. Residues, ends and D or L forms follow the SMILES beside them.

Tests used:
[1] = In vivo angiotensin (1-7) peptide metabolism assay (plasma concentration by radioimmunoassay); conditions: BDL rats, 10 μg/kg i.v. bolus; for time of peak plasma concentration post-injection: blood at 30 s, 1, 2, 5 min, Ang-(1-7) radioimmunoassay (cross-reactivity for A779 and D-Pro not determined); for time of peak plasma concentration post-injection / time for circulating peptide levels to return to baseline levels after injection: 4 rats per group, plasma; for fate in the rat circulation following a bolus injection: circulating concentrations by radioimmunoassay; for time for circulating peptide levels to return to baseline levels after injection: Ang-(1-7) radioimmunoassay
Experimental: To determine the longevity of the angiotensin peptides in the rat circulation, a separate set of experiments was carried out using BDL rats. Four weeks after BDL, the rats were anesthetized with ketamine/xylazine mixture and the femoral artery and vein were cannulated using PE-10 catheters as described previously ([Grace et al., 2013]). After 30 min of stabilization, 1 ml of blood was drawn from the femoral artery as the baseline sample into an Eppendorf tube containing protease inhibitor mix (20 μl/ml of blood: 50 mmol/L Na2 EDTA, 0.2 mol/L N-ethylmaleimide, 21,000 U/ml aprotonin, 5 mg/ml leupeptin, and 1 mg/ml pepstatin; prepared fresh daily and kept on ice) to prevent breakdown of angiotensin peptides. Injection of either MasR or MrgD blockers, A779 or D-Pro (10 μg/kg), respectively, was performed thereafter via the femoral vein catheter. Blood samples were collected at 30 s, 1, 2, and 5 min after injection. A separate group of rats was injected with Ang-(1-7) peptide (10 μg/kg) and blood was collected as before. After completion of the experiment, the rats were euthanized by exsanguination. Blood samples were centrifuged at 4,000 rpm for 10 min to harvest plasma. Radioimmunoassay for Ang-(1-7) (Prosearch International, Australia, Pty Ltd) was performed to determine plasma concentration of peptide blockers and Ang-(1-7) at different time points. Twelve BDL rats were used for the experiment, with four rats in each of the three treatment groups. The extent of cross-reactivity for D-Ala (A779) and D-Pro was not determined for the Ang-(1-7) radioimmunoassay.

[2] = test system: cirrhotic carbon tetrachloride (CCl4) injected rats; experiment: Portal pressure (PP) measurement in cirrhotic CCl4 rats after intravenous bolus injection; format: in vivo, Sprague Dawley rats
Experimental: (§1) Six-week-old male Sprague Dawley rats (200–250 g BW) were used to induce cirrhosis and PHT by injections of carbon tetrachloride (CCl4) as described previously ([Fallowfield et al., 2014]). Rats were housed in a controlled environment as described above. CCl4 was administered twice weekly via intraperitoneal injections, at a dose of 1 ml/kg, mixed with 1:1 ratio with olive oil. After 10 weeks of CCl4 administration, the rats were used for receptor blocker infusion experiments.
(§2) Four weeks after BDL, 10 weeks after CCl4 and 2 weeks after PPVL, the rats were anesthetized with ketamine/xylazine mixture (75 and 10 mg/kg BW, respectively, Therapon Pty Ltd). A median laparotomy was performed, and a small PE 10 polyethylene catheter (Microtube Extrusions, NSW, Australia) was inserted into a small ileocecal vein and advanced to the portal vein to measure PP. A skin incision was made in the left inner thigh to identify the left femoral artery and cannulated with a PE 10 catheter to measure the mean arterial pressure (MAP). Portal vein and femoral artery catheters were connected to a highly sensitive pressure transducer (Zultek Engineering, Melbourne, VIC, Australia). The left femoral vein was cannulated with a similar PE 10 catheter for bolus injections of the receptor blockers. After insertion of the catheters, the rats were allowed to stabilize hemodynamically for 30 min prior to interventions.
The baseline values of PP and MAP were recorded prior to injection of the drugs. For a single receptor blocker experiments, either MasR blocker A779 (10 μg/kg) ([Grace et al., 2013]), MrgD blocker D-Pro (10 μg/kg), or AT2R blocker PD123319 (1 mg/kg) ([Yang et al., 2011]) was administered intravenously via the femoral vein catheter as a single bolus injection. The dose was calculated for each individual rat according to body weight. The bolus injection was prepared by dissolving a stock solution of […] (A779 or D-Pro) or 10 mg/ml (PD123319) in 0.9% NaCl to make a minimum injectable volume of 0.25 ml. This is to avoid variations in pressure due to adding volume to the circulation. After the bolus injection of the drug, the catheter was slowly flushed with 0.25 ml 20 IU/ml heparinized saline. Measurement of PP and MAP was continued for additional 30 min after injection (Figure 2A). Each treatment group of BDL, CCl4, and PPVL consisted of six to seven rats. For each model, a separate control group of animals (n = 6 per group) received saline injections for comparison with the treatment effects.
A separate set of experiments were carried out in the two cirrhotic PHT rat models (BDL and CCl4) to investigate whether the detrimental effects of AT1R blocker losartan on systemic arterial pressure can be counteracted by a second injection of either MasR or MrgD blockers; A779 or D-Pro, respectively. In this study, a bolus injection of losartan was administered and 20 min later, a bolus injection of either A779 or D-Pro was given. The pressure measurement was carried out for additional 20 min after the second injection (Figure 2B). A total of 18 BDL and 18 CCl4 rats were used (n = 6 per treatment group).

[3] = test system: cirrhotic bile duct ligated (BDL) rats; experiment: Portal pressure (PP) measurement in cirrhotic bile duct ligated (BDL) rats after intravenous bolus injection; format: in vivo, Sprague Dawley rats
Experimental: (§3) Eight-week-old male Sprague Dawley rats (300–350 g BW) underwent bile duct ligation surgery (BDL) to induce cirrhosis and PHT. Rats were housed in a controlled environment with 12:12-h light to dark cycle with controlled temperature (22–24°C) and fed standard rat chow ad libitum (Norco, Lismore NSW, Australia) and water. After 1 week of acclimatization, the rats were anesthetized with isoflurane gaseous anesthesia (Therapon Pty Ltd., Victoria, Australia). The rats were also given a single dose of carprofen (5 mg/kg, Rimadyl, Australia) subcutaneously prior to surgery to limit post-operative discomfort. BDL surgery was performed as previously described ([Herath et al., 2007]). Briefly, a midline incision was made in the abdomen to enter the peritoneal cavity. The common bile duct was located and double ligated with 4/0 silk suture. The bile duct was then transacted between two ligatures. Intraoperatively, animals were kept warm on a heat pad and received 0.9% NaCl 10 ml/kg. The abdominal wall was closed in two layers using sterile 4/0 silk suture. Four weeks after BDL surgery, the rats were used for receptor blocker infusion experiments as described below.
as §2
(§4) The baseline values of PP and MAP were recorded prior to injection of the drugs. For a single receptor blocker experiments, either MasR blocker A779 (10 μg/kg) ([Grace et al., 2013]), MrgD blocker D-Pro (10 μg/kg), or AT2R blocker PD123319 (1 mg/kg) ([Yang et al., 2011]) was administered intravenously via the femoral vein catheter as a single bolus injection. The dose was calculated for each individual rat according to body weight. The bolus injection was prepared by dissolving a stock solution of […] (A779 or D-Pro) or 10 mg/ml (PD123319) in 0.9% NaCl to make a minimum injectable volume of 0.25 ml. This is to avoid variations in pressure due to adding volume to the circulation. […]

[4] = test system: cirrhotic carbon tetrachloride (CCl4) injected rats; experiment: Mean arterial pressure (MAP) measurement in CCl4 rats; format: in vivo, Sprague Dawley rats; conditions: CCl4 model
Experimental: as §1, §2, §4

[5] = test system: cirrhotic bile duct ligated (BDL) rats; experiment: Mean arterial pressure (MAP) measurement in BDL rats; format: in vivo, Sprague Dawley rats; conditions: BDL model
Experimental: as §3
as §2, with “The left femoral vein was cannulated with a similar PE 10 catheter for bolus injections of the receptor blockers. After insertion of the catheters, the rats were allowed to stabilize hemodynamically for 30 min prior to interventions.” left out
(§5) The baseline values of PP and MAP were recorded prior to injection of the drugs. […] The dose was calculated for each individual rat according to body weight. […]

MasR = conditions: ref Santos et al., 2003; cited from earlier work
Text: Although it is well known that Ang (1-7) produces its effects by binding to MasR and MrgD ([Santos et al., 2003]; [Tetzner et al., 2016]), early cell culture studies have reported some actions of Ang-(1-7) were mediated via the subtypes of AT1R ([Muthalif et al., 1998]; [[…] et al., 2001]). Some studies also proposed that MasR may interact with AT1R by receptor hetero-dimerization or alterations in post-receptor signaling ([Castro et al., 2005]; [Kostenis et al., 2005]; [Tesanovic et al., 2010]; [Castelo-Branco et al., 2017]; [O'Neill et al., 2017]), which in turn leads to the inhibition o ...

[6] = test system: non-cirrhotic partial portal vein ligated (PPVL) rats; experiment: Portal pressure (PP) measurement in non-cirrhotic PPVL rats after intravenous bolus injection; format: in vivo, Sprague Dawley rats; conditions: non-cirrhotic PPVL rat model; single i.v. bolus (A779, D-Pro 10 μg/kg; PD123319 1 mg/kg)
Experimental: (§6) Eight-week-old male Sprague Dawley rats (300–350 g BW) were used to induce non-cirrhotic portal hypertension by partial portal vein ligation (PPVL) surgery as described previously ([Kahn et al., 1988]). Briefly, under gaseous anesthesia, a median laparotomy was performed and the portal vein was identified. A 19G needle was placed alongside the length of the portal vein, and a 4/0 silk suture was tied around the portal vein and the needle. The needle was then removed creating a calibrated stenosis in the portal vein, partially obstructing the portal flow. The abdominal wall was closed in two layers using sterile 4/0 silk suture. Two weeks after PPVL, the rats were used for receptor blocker infusion experiments.
(§7) Four weeks after BDL, 10 weeks after CCl4 and 2 weeks after PPVL, the rats were anesthetized with ketamine/xylazine mixture (75 and 10 mg/kg BW, respectively, Therapon Pty Ltd). A median laparotomy was performed, and a small PE 10 polyethylene catheter (Microtube Extrusions, NSW, Australia) was inserted into a small ileocecal vein and advanced to the portal vein to measure PP. […]
as §5

[7] = test system: non-cirrhotic partial portal vein ligated (PPVL) rats; experiment: Mean arterial pressure (MAP) measurement in PPVL rats; format: in vivo, Sprague Dawley rats; conditions: single i.v. bolus (A779, D-Pro 10 μg/kg; PD123319 1 mg/kg)
Experimental: as §6, §7, §5

MrgD = conditions: HEK293 cells transfected with MrgD; ref Tetzner et al., 2016; cited from earlier work
Text: There is some evidence that ATR2 also mediates Ang-(1-7) action. This was based on observations that the vasodilatory effects of Ang-(1-7) in vivo ([Heitsch et al., 2001]) and ex vivo and in vitro ([Tesanovic et al., 2010]; [Grace et al., 2013]) were inhibited by AT2R blockade with PD123319.

[8] = CCl4 model, losartan 1 mg/kg i.v. bolus
[9] = BDL model, losartan 1 mg/kg i.v. bolus
[10] = losartan 1 mg/kg i.v. bolus, 12 to 14 rats
[11] = CCl4 model, single i.v. bolus (A779, D-Pro 10 μg/kg; PD123319 1 mg/kg)

Compound: CC[C@H](C)[C@H](NC(=O)[C@H](Cc1ccc(O)cc1)NC(=O)[C@@H](NC(=O)[C@H](CCCNC(=N)N)NC(=O)[C@@H](N)CC(=O)O)C(C)C)C(=O)N[C@@H](Cc1cnc[nH]1)C(=O)N[C@H](C)C(=O)O [A779] (H-DRVYIH[dA]-OH)
time of peak plasma concentration post-injection [1]: 2 min
fate in the rat circulation following a bolus injection [1]: rapidly degraded in the rat circulation
time for circulating peptide levels to return to baseline levels after injection [1]: ≤ 5 min

Compound: CCCCc1nc(Cl)c(CO)n1Cc1ccc(-c2ccccc2-c2nn[nH]n2)cc1 [losartan, losartan hydrochloride]
duration of portal pressure lowering effect post-intervention [2, 8]: up to 30 min
start of PP reduction post-injection [2, 8]: 5 min
change in PP from baseline pressure ([2]; CCl4 model, losartan 1 mg/kg i.v. bolus, 12 to 14 rats): significant (p < 0.01) reduction in PP
duration of portal pressure lowering effect post-intervention [3, 9]: up to 30 min
start of PP reduction post-injection [3, 9]: 5 min
change in PP from baseline pressure ([3]; BDL model, losartan 1 mg/kg i.v. bolus, 12 to 14 rats): significant (p < 0.01) reduction in PP
start of MAP reduction post-injection ([4]; losartan 1 mg/kg i.v. bolus): 10 min
change in MAP from baseline [4, 10]: significantly (p < 0.01) reduced MAP
start of MAP reduction post-injection ([5]; losartan 1 mg/kg i.v. bolus): 5 min
change in MAP from baseline [5, 10]: significantly (p < 0.01) reduced MAP
ligand for MasR (MasR): not a ligand for MasR

Compound: Cc1cc(Cn2cnc3c2C[C@@H](C(=O)O)N(C(=O)C(c2ccccc2)c2ccccc2)C3)ccc1N(C)C [PD123319]
maximum reduction in portal pressure [2, 11]: 4.8%
time for which the reduction in PP persisted after injection [2, 11]: up to 20 min
change in portal pressure (PP) from baseline ([2]; CCl4 rats, single i.v. bolus (A779, D-Pro 10 μg/kg; PD123319 1 mg/kg), measured at 5 min post-injection, six to seven rats per group): significant reduction in PP
portal pressure reduction ([3]; BDL rats, PD123319 1 mg/kg i.v. bolus): not statistically significant
effect on portal pressure (PP) [6]: failed to reduce PP
effect on mean arterial pressure (MAP) ([4]; single i.v. bolus (A779, D-Pro 10 μg/kg; PD123319 1 mg/kg)): no effect on MAP
effect on mean arterial pressure (MAP) ([5]; single i.v. bolus PD123319 1 mg/kg): no effect on MAP
effect on mean arterial pressure (MAP) [7]: no effect on MAP
block of Ang-(1-7)-stimulated cAMP release (MrgD): completed blocked

The next lines start with the values.

time of peak plasma concentration post-injection [1]: 2 min
fate in the rat circulation following a bolus injection [1]: rapidly degraded in the rat circulation
time for circulating peptide levels to return to baseline levels after injection [1]: ≤ 5 min
Compound: CC[C@H](C)[C@H](NC(=O)[C@H](Cc1ccc(O)cc1)NC(=O)[C@@H](NC(=O)[C@H](CCCN=C(N)N)NC(=O)[C@@H](N)CC(=O)O)C(C)C)C(=O)N[C@@H](Cc1c[nH]cn1)C(=O)N1CCC[C@@H]1C(=O)O [D-Pro, D-Pro^7-Ang-(1-7)]

time of peak plasma concentration post-injection [1]: 2 min
time for circulating peptide levels to return to baseline levels after injection [1]: ≤ 5 min
Compound: CC[C@H](C)[C@H](NC(=O)[C@H](Cc1ccc(O)cc1)NC(=O)[C@@H](NC(=O)[C@H](CCCNC(=N)N)NC(=O)[C@@H](N)CC(=O)O)C(C)C)C(=O)N[C@@H](Cc1c[nH]cn1)C(=O)N1CCC[C@H]1C(=O)O [Ang-(1-7), Angiotensin (1-7)]
